Experimental data published in PubChem BioAssay (NCI).
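96-well plates; 48 h exposure; 5 concentrations. Endpoints by linear interpolation between flanking doses. Not reached: highest tested concentration assigned. Definition used: TGI = concentration required for complete inhibition of growth.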

Assays:
Assay in all cases: inhibition of tumour cell growth, NCI panel, 48 h
A498 renal = tested on: A498 renal
SK-MEL-28 melanoma = tested on: SK-MEL-28 melanoma
RPMI-8226 leukemia = tested on: RPMI-8226 leukemia
KM12 colon = tested on: KM12 colon
HL-60(TB) leukemia = tested on: HL-60(TB) leukemia
SK-MEL-5 melanoma = tested on: SK-MEL-5 melanoma
SF-539 CNS = tested on: SF-539 CNS
DMS 273 small cell lung = tested on: DMS 273 small cell lung
HCC-2998 colon = tested on: HCC-2998 colon
HOP-92 NSCLC = tested on: HOP-92 NSCLC
CAKI-1 renal = tested on: CAKI-1 renal
NCI-H522 lung = tested on: NCI-H522 lung
NCI-H23 lung = tested on: NCI-H23 lung
LXFL 529 NSCLC = tested on: LXFL 529 NSCLC
UACC-257 melanoma = tested on: UACC-257 melanoma
786-0 renal = tested on: 786-0 renal
SF-268 CNS = tested on: SF-268 CNS
IGROV1 ovarian = tested on: IGROV1 ovarian
RXF 393 renal = tested on: RXF 393 renal
OVCAR-8 ovarian = tested on: OVCAR-8 ovarian
NCI-H460 lung = tested on: NCI-H460 lung
SK-OV-3 ovarian = tested on: SK-OV-3 ovarian
HCT-15 colon = tested on: HCT-15 colon
SNB-75 CNS = tested on: SNB-75 CNS
SNB-19 CNS = tested on: SNB-19 CNS
K-562 leukemia = tested on: K-562 leukemia
TK-10 renal = tested on: TK-10 renal
HOP-62 NSCLC = tested on: HOP-62 NSCLC
UACC-62 melanoma = tested on: UACC-62 melanoma
SNB-78 CNS = tested on: SNB-78 CNS
CCRF-CEM leukemia = tested on: CCRF-CEM leukemia
MOLT-4 leukemia = tested on: MOLT-4 leukemia
SR leukemia = tested on: SR leukemia
LOX IMVI melanoma = tested on: LOX IMVI melanoma
ACHN renal = tested on: ACHN renal
XF 498 CNS = tested on: XF 498 CNS
COLO 205 colon = tested on: COLO 205 colon
OVCAR-3 ovarian = tested on: OVCAR-3 ovarian
UO-31 renal = tested on: UO-31 renal
DMS 114 small cell lung = tested on: DMS 114 small cell lung
SW-620 colon = tested on: SW-620 colon
OVCAR-5 ovarian = tested on: OVCAR-5 ovarian
U251 CNS = tested on: U251 CNS
SN12C renal = tested on: SN12C renal
HT29 colon = tested on: HT29 colon
KM20L2 colon = tested on: KM20L2 colon
A549 NSCLC = tested on: A549 NSCLC
OVCAR-4 ovarian = tested on: OVCAR-4 ovarian
NCI-H226 lung = tested on: NCI-H226 lung
DLD-1 colon = tested on: DLD-1 colon
MALME-3M melanoma = tested on: MALME-3M melanoma
SF-295 CNS = tested on: SF-295 CNS
M19-MEL melanoma = tested on: M19-MEL melanoma
HCT-116 colon = tested on: HCT-116 colon
M14 melanoma = tested on: M14 melanoma
EKVX NSCLC = tested on: EKVX NSCLC
SK-MEL-2 melanoma = tested on: SK-MEL-2 melanoma
HOP-18 NSCLC = tested on: HOP-18 NSCLC

Measured: TGI

Cc1cc(NS(=O)(=O)c2ccc(NC(=O)COC(=O)c3cccc4c(=O)c5ccccc5[nH]c34)cc2)no1
> 100 µM: A498 renal | SK-MEL-28 melanoma | RPMI-8226 leukemia | KM12 colon | HL-60(TB) leukemia | SK-MEL-5 melanoma | SF-539 CNS | DMS 273 small cell lung | HCC-2998 colon | HOP-92 NSCLC | CAKI-1 renal | NCI-H522 lung | NCI-H23 lung | LXFL 529 NSCLC | UACC-257 melanoma | 786-0 renal | SF-268 CNS | IGROV1 ovarian | RXF 393 renal | OVCAR-8 ovarian | NCI-H460 lung | SK-OV-3 ovarian | HCT-15 colon | SNB-75 CNS | SNB-19 CNS | K-562 leukemia | TK-10 renal | HOP-62 NSCLC | UACC-62 melanoma | SNB-78 CNS | CCRF-CEM leukemia | MOLT-4 leukemia | SR leukemia | LOX IMVI melanoma | ACHN renal | XF 498 CNS | COLO 205 colon | OVCAR-3 ovarian | UO-31 renal | DMS 114 small cell lung | SW-620 colon | OVCAR-5 ovarian | U251 CNS | SN12C renal | HT29 colon | KM20L2 colon | A549 NSCLC | OVCAR-4 ovarian | NCI-H226 lung | DLD-1 colon | MALME-3M melanoma | SF-295 CNS | M19-MEL melanoma | HCT-116 colon | M14 melanoma | EKVX NSCLC

CCCCCCCCCCCCCCNCC(OCC)OCC
34.3 µM: NCI-H460 lung
32.8 µM: SK-OV-3 ovarian
24.9 µM: KM20L2 colon
27.4 µM: XF 498 CNS
28.3 µM: DLD-1 colon
27.3 µM: HCC-2998 colon
32.5 µM: SK-MEL-28 melanoma | LOX IMVI melanoma
27.9 µM: SK-MEL-5 melanoma | SN12C renal
28 µM: COLO 205 colon
22.2 µM: KM12 colon
40.4 µM: OVCAR-8 ovarian
28.6 µM: SK-MEL-2 melanoma | OVCAR-5 ovarian | OVCAR-4 ovarian
19.9 µM: NCI-H522 lung
29.7 µM: SF-539 CNS
32 µM: MALME-3M melanoma
31.9 µM: SW-620 colon
33 µM: 786-0 renal | UACC-62 melanoma
27 µM: ACHN renal
33.5 µM: SNB-78 CNS
23.2 µM: HCT-15 colon
31.2 µM: UACC-257 melanoma
30.5 µM: NCI-H23 lung | U251 CNS | M19-MEL melanoma
23.1 µM: HCT-116 colon
25.7 µM: DMS 114 small cell lung
33.7 µM: OVCAR-3 ovarian
27.5 µM: M14 melanoma
31.8 µM: SNB-19 CNS
31.6 µM: HOP-62 NSCLC
29 µM: LXFL 529 NSCLC
30.6 µM: SF-295 CNS
24.5 µM: CCRF-CEM leukemia
36.7 µM: SF-268 CNS
32.7 µM: TK-10 renal
37.6 µM: A549 NSCLC | NCI-H226 lung
22.9 µM: RXF 393 renal | UO-31 renal
34.7 µM: EKVX NSCLC
30.3 µM: IGROV1 ovarian | HOP-18 NSCLC
23 µM: SNB-75 CNS
26.4 µM: HOP-92 NSCLC
28.5 µM: A498 renal
11.4 µM: HT29 colon
11.5 µM: HL-60(TB) leukemia

Cc1cc(NS(=O)(=O)c2ccc(Nc3c4ccccc4nc4c(C(=O)Nc5ccc(S(=O)(=O)N=C(N)N)cc5)ccc(Cl)c34)cc2)no1
36.8 µM: LOX IMVI melanoma
41.7 µM: SF-539 CNS
77.9 µM: HOP-62 NSCLC
33.2 µM: NCI-H522 lung
68.9 µM: DMS 114 small cell lung
85.6 µM: OVCAR-4 ovarian
> 100 µM: A498 renal | SK-MEL-28 melanoma | RPMI-8226 leukemia | KM12 colon | SK-MEL-5 melanoma | DMS 273 small cell lung | HCC-2998 colon | CAKI-1 renal | LXFL 529 NSCLC | UACC-257 melanoma | 786-0 renal | NCI-H460 lung | SNB-19 CNS | K-562 leukemia | TK-10 renal | HOP-18 NSCLC | ACHN renal | COLO 205 colon | UO-31 renal | OVCAR-5 ovarian | U251 CNS | SN12C renal | HT29 colon | KM20L2 colon | A549 NSCLC | DLD-1 colon | MALME-3M melanoma | SF-295 CNS | M19-MEL melanoma | HCT-116 colon | M14 melanoma | EKVX NSCLC
73.5 µM: UACC-62 melanoma
63.2 µM: SF-268 CNS | OVCAR-3 ovarian
67.3 µM: MOLT-4 leukemia
73.2 µM: SNB-75 CNS
97.8 µM: NCI-H226 lung
92.6 µM: NCI-H23 lung
38.5 µM: OVCAR-8 ovarian
61 µM: SR leukemia
68.8 µM: HL-60(TB) leukemia
72.9 µM: RXF 393 renal
97.7 µM: SNB-78 CNS
95.4 µM: SK-OV-3 ovarian
90.9 µM: XF 498 CNS

CC/C(CC(=O)CCC(=O)Nc1ccc(C)c(C)c1)=N\NC(=O)C(N)=O
> 100 µM: A498 renal | SK-MEL-28 melanoma | RPMI-8226 leukemia | HL-60(TB) leukemia | SK-MEL-5 melanoma | SF-539 CNS | DMS 273 small cell lung | HOP-92 NSCLC | CAKI-1 renal | NCI-H522 lung | NCI-H23 lung | LXFL 529 NSCLC | UACC-257 melanoma | 786-0 renal | SF-268 CNS | IGROV1 ovarian | OVCAR-8 ovarian | SK-OV-3 ovarian | HCT-15 colon | SNB-75 CNS | SNB-19 CNS | K-562 leukemia | TK-10 renal | HOP-62 NSCLC | UACC-62 melanoma | SNB-78 CNS | CCRF-CEM leukemia | MOLT-4 leukemia | SR leukemia | HOP-18 NSCLC | ACHN renal | XF 498 CNS | COLO 205 colon | OVCAR-3 ovarian | UO-31 renal | DMS 114 small cell lung | SW-620 colon | OVCAR-5 ovarian | U251 CNS | SN12C renal | HT29 colon | KM20L2 colon | A549 NSCLC | OVCAR-4 ovarian | NCI-H226 lung | DLD-1 colon | MALME-3M melanoma | SF-295 CNS | M19-MEL melanoma | HCT-116 colon | M14 melanoma | EKVX NSCLC
